Patent US10925876B2, “Methods for using triazolo-pyrazinyl soluble guanylate cyclase activators in fibrotic disorders” (Merck Sharp & Dohme Corp., priority 2016, dated 2021)

The compounds below were run against T1, sGC α1/β1 heterodimer (Homo sapiens, UniProt Q02108+Q02153) (assay: Cell-Based sGC Functional Assay (CASA Assay), cGMP generation in CHO-K1/sGC cells). Settings: maximum cGMP production of Compound A set to 100% activation, read-out: % Act. (percent activation relative to Compound A).
T1 construct: expressed in transfected cells
T1 sequence (Q02108 1-690): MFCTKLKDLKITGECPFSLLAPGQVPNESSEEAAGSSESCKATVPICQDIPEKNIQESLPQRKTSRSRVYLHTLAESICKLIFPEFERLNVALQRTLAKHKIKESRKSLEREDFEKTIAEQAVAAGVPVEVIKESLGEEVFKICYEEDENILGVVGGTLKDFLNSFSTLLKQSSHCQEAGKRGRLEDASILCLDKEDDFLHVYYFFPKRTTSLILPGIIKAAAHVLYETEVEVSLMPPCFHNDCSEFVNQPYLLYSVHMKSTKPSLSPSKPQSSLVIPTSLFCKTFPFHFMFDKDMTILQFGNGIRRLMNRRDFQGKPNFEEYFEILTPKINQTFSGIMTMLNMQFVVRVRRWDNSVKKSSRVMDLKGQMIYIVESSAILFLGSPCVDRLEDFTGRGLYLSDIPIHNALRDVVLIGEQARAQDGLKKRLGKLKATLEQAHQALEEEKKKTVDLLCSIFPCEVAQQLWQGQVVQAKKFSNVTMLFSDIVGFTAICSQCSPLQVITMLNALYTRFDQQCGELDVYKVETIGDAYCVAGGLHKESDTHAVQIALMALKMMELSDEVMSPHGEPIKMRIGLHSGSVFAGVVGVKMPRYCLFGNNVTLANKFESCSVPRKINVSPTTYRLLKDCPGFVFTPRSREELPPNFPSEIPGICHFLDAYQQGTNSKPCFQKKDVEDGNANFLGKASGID
T1 sequence (Q02153 1-619): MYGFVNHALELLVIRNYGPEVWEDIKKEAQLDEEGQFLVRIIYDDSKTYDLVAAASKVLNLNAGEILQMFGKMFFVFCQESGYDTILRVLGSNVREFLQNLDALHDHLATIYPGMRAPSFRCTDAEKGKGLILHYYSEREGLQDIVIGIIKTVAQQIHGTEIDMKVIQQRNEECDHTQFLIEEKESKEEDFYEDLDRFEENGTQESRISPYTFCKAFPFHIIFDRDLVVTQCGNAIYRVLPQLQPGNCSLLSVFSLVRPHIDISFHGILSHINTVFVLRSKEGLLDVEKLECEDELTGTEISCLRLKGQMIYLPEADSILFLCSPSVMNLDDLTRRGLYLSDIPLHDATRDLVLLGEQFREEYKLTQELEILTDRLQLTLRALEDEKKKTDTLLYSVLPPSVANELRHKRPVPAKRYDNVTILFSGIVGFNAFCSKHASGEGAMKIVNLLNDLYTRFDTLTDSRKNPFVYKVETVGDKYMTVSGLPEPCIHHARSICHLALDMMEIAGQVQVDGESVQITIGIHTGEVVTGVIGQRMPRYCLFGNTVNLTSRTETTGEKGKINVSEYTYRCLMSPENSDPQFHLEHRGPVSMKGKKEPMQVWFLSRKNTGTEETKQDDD
Description: sGC is a heme-containing enzyme that converts GTP to secondary messenger cGMP. Increases in cGMP levels affect several physiological processes including vasorelaxation through multiple downstream pathways. […] Heme-dependent activators (HDAs) preferentially activate sGC containing a ferrous heme group. To determine the effect of sGC activators on enzyme activity, the CASA assay was developed to monitor the generation of cGMP in a cell line that stably expresses the heterodimeric sGC protein.
A CHO-K1 cell line stably expressing the sGC α1/β1 heterodimer was generated using a standard transfection protocol. CHO-K1 cells were transfected with plasmids pIREShyghsGCα1 and pIRESneo-hsGCβ1 simultaneously using FUGENE reagent. Clones that stably express both subunits were selected with hygromycin and neomycin for ˜2 weeks. Clone #7 was chosen for the assay and was designated CHO-K1/sGC. CHO-K1/sGC cells were maintained in F-K12 medium containing 10% heat-inactivated Fetal Bovine Serum (FBS), 100 μg/mL penicillin/streptomycin, 0.5 mg/mL hygromycin and 0.25 mg/mL G418. The cells were then cryopreserved in LN2. On the day of the assay, cells thawed and resuspended in EBSS Assay Buffer (Sigma, E3024) supplemented with 5 mM MgCl2, 10 mM HEPES (4-(2-hydroxyethyl)piperazine-1-ethanesulfonic acid) and 0.05% BSA (bovine serum albumin) (EAB) and cell density was then adjusted to 4×10^5/mL with EAB. IBMX (3-isobutyl-1-methylxanthin, 0.5 mM) was added to inhibit degradation of cGMP. Compounds were diluted from DMSO stock solutions and added to the assay at a final DMSO concentration of 2.5%. Cells were incubated with compounds in the presence and absence of 1 μM of Diethylenetriamine/nitric oxide adduct (DETA-NO; Sigma, 17018) for 1 hr at 37° C. At the end of the incubation period, the reaction was terminated and the cells were lysed with the detection reagents from Cisbio Kits. The level of intracellular cGMP was determined using an HTRF-based assay kit (CisBio, 62GM2PEC), which detects the displacement of a fluorescence labeled cGMP from its specific antibody. The cGMP produced by test compounds was directly compared to the maximum cGMP production (this value was set to equal 100% activation.) of the published sGC-HDA Compound A:
[drawing 298] (Example 1 in WO 2010/065275, published Jun. 10, 2010). The test compounds' activities were then expressed as a percentage of Compound A, the standard in every experiment. This percent activation was calculated either in the presence or absence of DETA-NO which was then plotted. IP and maximum fold induction was derived using ADA analysis software for 4P fit.
Work on Cc1ccc(C2(C)C(=O)Nc3nc(-c4cn5ncnc5c(CCC(F)(F)C(F)(F)F)n4)nc(O)c32)nc1 (stereo not drawn) [Example 130B, 4-hydroxy-5-methyl-5-(5-methylpyridin-2-yl)-2-(8-(3,3,4,4,4-pentafluorobutyl)-[1,2,4]triazolo[1,5-a]pyrazin-6-yl)-5H-pyrrolo[2,3-d]pyrimidin-6(7H)-one] yielded an Emax of 109%.
CCCc1nc(-c2nc(N)c3c(n2)NC(=O)C3(C)c2ccc(F)cn2)cn2ncnc12 (stereo not drawn) [Example 54B, 4-amino-5-(5-fluoropyridin-2-yl)-5-methyl-2-(8-propyl-[1,2,4]triazolo[1,5-a]pyrazin-6-yl)-5H-pyrrolo[2,3-d]pyrimidin-6(7H)-one] was tested, and the Emax was 210%.
For CCCCc1nc(-c2nc(N)c3c(n2)NC(=O)C3(C)c2ccc(C)cn2)cn2ncnc12 (stereo not drawn) [Example 71B, 4-amino-2-(8-butyl-[1,2,4]triazolo[1,5-a]pyrazin-6-yl)-5-methyl-5-(5-methylpyridin-2-yl)-5H-pyrrolo[2,3-d)pyrimidin-6(7H)-one], the Emax was 118%.
Work on COc1cccc(Cc2nc(-c3nc(N)c4c(n3)NC(=O)[C@@]4(C)c3ccc(F)cc3)cn3ncnc23)c1 [Example 86B, (S)-4-amino-5-(4-fluorophenyl)-2-(8-(3-methoxybenzyl)-[1,2,4]triazolo[1,5-a]pyrazin-6-yl)-5-methyl-5H-pyrrolo[2,3-d]pyrimidin-6(7H)-one] yielded an Emax of 126%.
For O=C1Nc2nc(-c3cn4ncnc4c(CCCC(F)(F)F)n3)nc(O)c2C1(c1ccc(C(F)(F)F)cc1)C1CC1 (stereo not drawn) [Example 144A, 5-cyclopropyl-4-hydroxy-2-(8-(4,4,4-trifluorobutyl)-[1,2,4]triazolo[1,5-a]pyrazin-6-yl)-5-(4-(trifluoromethyl)phenyl)-5H-pyrrolo[2,3-d]pyrimidin-6(7H)-one], the Emax was 87%.
For Nc1nc(-c2cn3ncnc3c(CCC(F)(F)F)n2)nc2c1C(c1ccc(C(F)(F)F)cn1)(C1CC1)C(=O)N2 (stereo not drawn) [Example 80A, 4-amino-5-cyclopropyl-5-(5-(trifluoromethyl)pyridin-2-yl)-2-(8-(3,3,3-trifluoropropyl)-[1,2,4]triazolo[1,5-a]pyrazin-6-yl)-5H-pyrrolo[2,3-d]pyrimidin-6(7H)-one], the Emax was 115%.
CC1(c2ccc(Cl)cc2)C(=O)Nc2nc(-c3cn4ncnc4c(CCC(F)(F)C(F)(F)F)n3)nc(N)c21 (stereo not drawn) [Example 10A, 4-amino-5-(4-chlorophenyl)-5-methyl-2-(8-(3,3,4,4,4-pentafluorobutyl)-[1,2,4]triazolo[1,5-a]pyrazin-6-yl)-5H-pyrrolo[2,3-d]pyrimidin-6(7H)-one] showed an Emax of 137%.
CCCCc1nc(-c2nc(N)c3c(n2)NC(=O)C3(C)c2ccc(F)c(F)c2)cn2ncnc12 (stereo not drawn) [Example 64B, 4-amino-2-(8-butyl-[1,2,4]triazolo[1,5-a]pyrazin-6-yl)-5-(3,4-difluorophenyl)-5-methyl-5H-pyrrolo[2,3-d]pyrimidin-6(7H)-one] showed an Emax of 90%.
CC1(c2ccc(F)cn2)C(=O)Nc2nc(-c3cn4ncnc4c(CCCC(F)(F)F)n3)ncc21 (stereo not drawn) [Example 176B, 5-(5-fluoropyridin-2-yl)-5-methyl-2-(8-(4,4,4-trifluorobutyl)-[1,2,4]triazolo[1,5-a]pyrazin-6-yl)-5H-pyrrolo[2,3-d]pyrimidin-6(7H)-one] was tested, and the Emax was 166%.
Work on CCCCc1nc(-c2nc(O)c3c(n2)NC(=O)C3(C)c2cccc(F)c2)cn2ncnc12 (stereo not drawn) [Example 171A, 2-(8-Butyl-[1,2,4]triazolo[1,5-a]pyrazin-6-yl)-5-(3-fluorophenyl)-4-hydroxy-5-methyl-5,7-dihydro-6H-pyrrolo[2,3-d]pyrimidin-6-one] yielded an Emax of 90%.
Compound CCCCc1nc(-c2nc(N)c3c(n2)NC(=O)C3(c2ccc(Cl)cn2)C2CC2)cn2ncnc12 (stereo not drawn) [Example 68A, 4-amino-2-(8-butyl-[1,2,4]triazolo[1,5-a]pyrazin-6-yl)-5-(5-chloropyridin-2-yl)-5-cyclopropyl-5H-pyrrolo[2,3-d]pyrimidin-6(7H)-one] has an Emax of 113%.
In the case of CCCc1nc(-c2nc(N)c3c(n2)NC(=O)[C@@]3(C)c2ccc(F)cc2)cn2nc(C)nc12 [Example 91A, (S)-4-amino-5-(4-fluorophenyl)-5-methyl-2-(2-methyl-8-propyl-[1,2,4]triazolo[1,5-a]pyrazin-6-yl)-5,7-dihydro-6H-pyrrolo[2,3-d]pyrimidin-6-one], the Emax is reported as 105%.
For CCCCc1nc(-c2nc(N)c3c(n2)NC(=O)C3(c2ccc(F)cn2)C2CC2)cn2ncnc12 (stereo not drawn) [Example 66A, 4-amino-2-(8-butyl-[1,2,4]triazolo[1,5-a]pyrazin-6-yl)-5-cyclopropyl-5-(5-fluoropyridin-2-yl)-5H-pyrrolo[2,3-d]pyrimidin-6(7H)-one], the Emax was 162%.
CCCCc1nc(-c2nc(N)c3c(n2)NC(=O)C3(c2ccccn2)C2CC2)cn2ncnc12 (stereo not drawn) [Example 116A, 4-amino-2-(8-butyl-[1,2,4]triazolo[1,5-a]pyrazin-6-yl)-5-cyclopropyl-5-(pyridin-2-yl)-5H-pyrrolo[2,3-d]pyrimidin-6(7H)-one] was tested, and the Emax was 85%.
CC1(c2ccc(C#N)cn2)C(=O)Nc2nc(-c3cn4ncnc4c(CCCC(F)(F)F)n3)nc(N)c21 (stereo not drawn) [Example 48A, 6-(4-amino-5-methyl-6-oxo-2-(8-(4,4,4-trifluorobutyl)-[1,2,4]triazolo[1,5-a]pyrazin-6-yl)-6,7-dihydro-5H-pyrrolo[2,3-d]pyrimidin-5-yl)nicotinonitrile] was tested, and the Emax was 85%.
With CC1(c2ccc(F)c(F)c2)C(=O)Nc2nc(-c3cn4ncnc4c(CCCC(F)(F)F)n3)nc(N)c21 (stereo not drawn) [Example 38B, 4-amino-5-(3,4-difluorophenyl)-5-methyl-2-(8-(4,4,4-trifluorobutyl)-[1,2,4]triazolo[1,5-a]pyrazin-6-yl)-5H-pyrrolo[2,3-d]pyrimidin-6(7H)-one] the Emax was 120%.
In the case of CC1(c2ccccc2)C(=O)Nc2nc(-c3cn4ncnc4c(CCC(F)(F)C(F)(F)F)n3)nc(O)c21 (stereo not drawn) [Example 128B, 4-hydroxy-5-methyl-2-(8-(3,3,4,4,4-pentafluorobutyl)-[1,2,4]triazolo[1,5-a]pyrazin-6-yl)-5-phenyl-5H-pyrrolo[2,3-d]pyrimidin-6(7H)-one], the Emax is reported as 106%.
Compound CC(F)(F)c1ccc(C2(C)C(=O)Nc3nc(-c4cn5ncnc5c(CCCC(F)(F)F)n4)nc(N)c32)cn1 (racemic) [Example 45B, 4-amino-5-(6-(1,1-difluoroethyl)pyridin-3-yl)-5-methyl-2-(8-(4,4,4-trifluorobutyl)-[1,2,4]triazolo[1,5-a]pyrazin-6-yl)-5H-pyrrolo[2,3-d]pyrimidin-6(7H)-one] has an Emax of 156%.
